From PubChem BioAssay AID1259407 (Chemical Carcinogenesis Research Information System (CCRIS), 2018) come the findings set out here.

Calls of active or inactive are those of the source. How the calls were made is not given here.

The subject of the series is CCRIS mutagenicity, Ames/micronucleus/aberration tests. Put plainly: CCRIS mutagenicity studies.
The mark [1] stands for this setting: Test System: AMES SALMONELLA TYPHIMURIUM, Strain/Indicator: TA98, Metabolic Activation: NONE, Method: STANDARD PLATE.
[2] abbreviates: Test System: AMES SALMONELLA TYPHIMURIUM, Strain/Indicator: TA100, Metabolic Activation: NONE, Method: STANDARD PLATE.
Where [3] appears, read: Test System: AMES SALMONELLA TYPHIMURIUM, Strain/Indicator: TA98, Metabolic Activation: RAT, LIVER, S-9, AROCLOR 1254, Method: STANDARD PLATE.
[4] abbreviates: End Point: IN VITRO CHROMOSOMAL ABERRATIONS, Test System: CHL CELLS, Metabolic Activation: RAT, LIVER, S-9, SODIUM PHENOBARBITAL AND 5,6-BENZOFLAVONE
[5] abbreviates: Test System: AMES SALMONELLA TYPHIMURIUM, Strain/Indicator: TA98, Metabolic Activation: NONE, Method: PREINCUBATION
[6] abbreviates: Test System: AMES SALMONELLA TYPHIMURIUM, Strain/Indicator: TA100, Metabolic Activation: NONE, Method: PREINCUBATION
[7] abbreviates: Test System: AMES SALMONELLA TYPHIMURIUM, Strain/Indicator: TA1535, Metabolic Activation: NONE, Method: PREINCUBATION
Where [8] appears, read: Test System: AMES SALMONELLA TYPHIMURIUM, Strain/Indicator: TA1537, Metabolic Activation: NONE, Method: PREINCUBATION

As for `O=C(Cn1c(=O)sc2ccccc21)OCc1ccccc1`, the mutagenic call runs as follows: (Test System: AMES SALMONELLA TYPHIMURIUM, Strain/Indicator: TA97, Metabolic Activation: NONE, Method: STANDARD PLATE) “inactive; negative”; (Test System: AMES SALMONELLA TYPHIMURIUM, Strain/Indicator: TA97, Metabolic Activation: RAT, LIVER, S-9, DELOR 103, Method: STANDARD PLATE) “inactive; negative”; under setting [1], “inactive; negative”; (Test System: AMES SALMONELLA TYPHIMURIUM, Strain/Indicator: TA98, Metabolic Activation: RAT, LIVER, S-9, DELOR 103, Method: STANDARD PLATE) “inactive; negative”; under setting [2], “inactive; negative”; (Test System: AMES SALMONELLA TYPHIMURIUM, Strain/Indicator: TA100, Metabolic Activation: RAT, LIVER, S-9, DELOR 103, Method: STANDARD PLATE) “inactive; negative”. The mutagenic call is “inactive; negative” (Test System: AMES SALMONELLA TYPHIMURIUM, Strain/Indicator: TA1535, Metabolic Activation: NONE, Method: STANDARD PLATE); “inactive; negative” (Test System: AMES SALMONELLA TYPHIMURIUM, Strain/Indicator: TA1535, Metabolic Activation: RAT, LIVER, S-9, DELOR 103, Method: STANDARD PLATE); “inactive; negative” (Test System: AMES SALMONELLA TYPHIMURIUM, Strain/Indicator: TA1538, Metabolic Activation: NONE, Method: STANDARD PLATE); “inactive; negative” (Test System: AMES SALMONELLA TYPHIMURIUM, Strain/Indicator: TA1538, Metabolic Activation: RAT, LIVER, S-9, DELOR 103, Method: STANDARD PLATE).
As for `COc1ccc2cc1Oc1ccc(cc1)C[C@H]1c3cc(c(OC)cc3CCN1C)Oc1c(OC)c(OC)cc3c1[C@H](C2)N(C)CC3`, the mutagenic call under setting [1] was “inactive; negative”; the mutagenic call under setting [3] is “active; positive”; the mutagenic call under setting [2] was “inactive; negative”; the mutagenic call (Test System: AMES SALMONELLA TYPHIMURIUM, Strain/Indicator: TA100, Metabolic Activation: RAT, LIVER, S-9, AROCLOR 1254, Method: STANDARD PLATE) is “inactive; negative”.
As to `CCC(Cl)C(=O)O` (stereo not given), the mutagenic call was “inactive; negative” under setting [4]; “active; positive (structural changes)” (End Point: IN VITRO CHROMOSOMAL ABERRATIONS, Test System: CHL/IU CELLS, Metabolic Activation: NONE); “active; positive” (End Point: IN VITRO MICRONUCLEUS, Test System: CHL/IU CELLS, Metabolic Activation: NONE).
With `O=[N+]([O-])c1cccc2cccc([N+](=O)[O-])c12`, the mutagenic call was “inactive; negative” (End Point: IN VITRO CHROMOSOMAL ABERRATIONS, Test System: CHL CELLS, Metabolic Activation: NONE); “active; positive (structural changes)” under setting [4]; “active; positive” (Test System: AMES SALMONELLA TYPHIMURIUM, Strain/Indicator: TA98, Metabolic Activation: HAMSTER, LIVER, S-9, AROCLOR 1254, FLAVIN MONONUCLEOTIDE, Method: PREINCUBATION); “active; positive” (Test System: AMES SALMONELLA TYPHIMURIUM, Strain/Indicator: TA98, Metabolic Activation: HAMSTER, LIVER, S-9, AROCLOR 1254, Method: PREINCUBATION); “active; positive” under setting [5]; “active; positive” (Test System: AMES SALMONELLA TYPHIMURIUM, Strain/Indicator: TA98, Metabolic Activation: RAT LIVER S-9, PHENOBARBITAL AND BETA-NAPHTHOFLAVONE, Method: PREINCUBATION). The mutagenic call by setting is: (Test System: AMES SALMONELLA TYPHIMURIUM, Strain/Indicator: TA98, Metabolic Activation: RAT, LIVER, S-9, AROCLOR 1254, FLAVIN MONONUCLEOTIDE, Method: PREINCUBATION) “active; positive”; under setting [3], “active; positive”; under setting [6], “active; positive”; (Test System: AMES SALMONELLA TYPHIMURIUM, Strain/Indicator: TA100, Metabolic Activation: RAT LIVER S-9, PHENOBARBITAL AND BETA-NAPHTHOFLAVONE, Method: PREINCUBATION) “active; positive”; under setting [7], “inactive; negative”; (Test System: AMES SALMONELLA TYPHIMURIUM, Strain/Indicator: TA1535, Metabolic Activation: RAT LIVER S-9, PHENOBARBITAL AND BETA-NAPHTHOFLAVONE, Method: PREINCUBATION) “inactive; negative”. Moreover, the mutagenic call is “active; positive” under setting [8]; “active; positive” (Test System: AMES SALMONELLA TYPHIMURIUM, Strain/Indicator: TA1537, Metabolic Activation: RAT LIVER S-9, PHENOBARBITAL AND BETA-NAPHTHOFLAVONE, Method: PREINCUBATION); “active; positive” (Test System: AMES SALMONELLA TYPHIMURIUM, Strain/Indicator: TA1538, Metabolic Activation: NONE, Method: PREINCUBATION); “active; positive” (Test System: AMES SALMONELLA TYPHIMURIUM, Strain/Indicator: TA1538, Metabolic Activation: RAT LIVER S-9, PHENOBARBITAL AND BETA-NAPHTHOFLAVONE, Method: PREINCUBATION); “inactive; negative” (Test System: E.COLI, Strain/Indicator: WP2UVRA, Metabolic Activation: NONE, Method: PREINCUBATION); “active; positive” (Test System: E.COLI, Strain/Indicator: WP2UVRA, Metabolic Activation: RAT LIVER S-9, PHENOBARBITAL AND BETA-NAPHTHOFLAVONE, Method: PREINCUBATION).
For `O=C(O[C@@H]1Cc2c(O)cc(O)cc2O[C@@H]1c1cc(O)c(O)c(O)c1)c1cc(O)c(O)c(O)c1`, the mutagenic call runs as follows: (Test System: Ames Salmonella typhimurium, Strain/Indicator: TA102, Metabolic Activation: None, Method: Preincubation) “inactive; negative”; (Test System: Ames Salmonella typhimurium, Strain/Indicator: TA102, Metabolic Activation: Rat, Liver, S-9, Aroclor 1254 in 0.154 M KCl, Method: Preincubation) “inactive; negative”.
As to `[O]=[Cd]`, the mutagenic call by setting is: (End Point: In vivo micronucleus, Test System: Peripheral blood lymphocytes, Species: Dog, Strain/Sex: Mongrel/Male, Female, Route: Oral) “active; positive in group 2”; (Test System: AMES SALMONELLA TYPHIMURIUM, Strain/Indicator: TA98, Metabolic Activation: HAMSTER, LIVER, S-9, AROCLOR 1254 (10%), Method: PREINCUBATION) “inactive; negative”; under setting [5], “inactive; negative”; (Test System: AMES SALMONELLA TYPHIMURIUM, Strain/Indicator: TA98, Metabolic Activation: RAT, LIVER, S-9, AROCLOR 1254 (10%), Method: PREINCUBATION) “inactive; negative”; (Test System: AMES SALMONELLA TYPHIMURIUM, Strain/Indicator: TA100, Metabolic Activation: HAMSTER, LIVER, S-9, AROCLOR 1254 (10%), Method: PREINCUBATION) “inactive; negative”; under setting [6], “inactive; negative”. For the same compound, the mutagenic call is, setting by setting: (Test System: AMES SALMONELLA TYPHIMURIUM, Strain/Indicator: TA100, Metabolic Activation: RAT, LIVER, S-9, AROCLOR 1254 (10%), Method: PREINCUBATION) “inactive; negative”; (Test System: AMES SALMONELLA TYPHIMURIUM, Strain/Indicator: TA1535, Metabolic Activation: HAMSTER, LIVER, S-9, AROCLOR 1254 (10%), Method: PREINCUBATION) “inactive; negative”; under setting [7], “inactive; negative”; (Test System: AMES SALMONELLA TYPHIMURIUM, Strain/Indicator: TA1535, Metabolic Activation: RAT, LIVER, S-9, AROCLOR 1254 (10%), Method: PREINCUBATION) “inactive; negative”; (Test System: AMES SALMONELLA TYPHIMURIUM, Strain/Indicator: TA1537, Metabolic Activation: HAMSTER, LIVER, S-9, AROCLOR 1254 (10%), Method: PREINCUBATION) “inactive; negative”; under setting [8], “inactive; negative”. In addition, the mutagenic call (Test System: AMES SALMONELLA TYPHIMURIUM, Strain/Indicator: TA1537, Metabolic Activation: RAT, LIVER, S-9, AROCLOR 1254 (10%), Method: PREINCUBATION) is “inactive; negative”.
